The record followed here is ChEMBL document CHEMBL4265966 (Bioorg Med Chem Lett, 2018).

The source made the active and inactive calls. The calls are words filed in the database; no cut-off is given here.

Test [1] has as its target T1, Sodium-dependent serotonin transporter (Homo sapiens, UniProt P31645). Put plainly: biochemical. The format is cell-based, HEK293.
Target sequence in this assay (P31645 whole entry): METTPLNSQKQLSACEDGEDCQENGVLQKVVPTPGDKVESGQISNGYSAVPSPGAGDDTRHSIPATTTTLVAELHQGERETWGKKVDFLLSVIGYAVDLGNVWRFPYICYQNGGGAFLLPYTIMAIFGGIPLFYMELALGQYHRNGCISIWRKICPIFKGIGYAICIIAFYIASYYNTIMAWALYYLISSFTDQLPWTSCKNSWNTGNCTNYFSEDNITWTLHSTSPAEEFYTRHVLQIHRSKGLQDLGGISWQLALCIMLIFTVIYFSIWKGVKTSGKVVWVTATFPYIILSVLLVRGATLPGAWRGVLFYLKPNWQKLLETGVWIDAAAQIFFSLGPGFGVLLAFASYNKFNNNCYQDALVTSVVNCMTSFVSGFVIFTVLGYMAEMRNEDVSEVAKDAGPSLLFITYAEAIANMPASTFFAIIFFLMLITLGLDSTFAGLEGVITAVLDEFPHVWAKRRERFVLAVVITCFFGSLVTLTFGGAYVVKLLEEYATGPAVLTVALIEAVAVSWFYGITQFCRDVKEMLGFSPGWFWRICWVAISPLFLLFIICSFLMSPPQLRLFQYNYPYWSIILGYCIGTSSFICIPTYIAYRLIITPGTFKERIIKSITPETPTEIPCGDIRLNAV
Description: Displacement of [125I]-RTI-55 from human SERT expressed in HEK293 cell membranes after 1 hr by gamma counting method
The target in test [2] is T1, Sodium-dependent serotonin transporter. Kind of test: Potency index, ratio of (S)-citalopram Ki to compound Ki for displacement of [125I]-RTI-55 from human SERT expressed in HEK293 cell membranes. (Displacement assays read how much labelled ligand stays bound in the presence of the test substance.)
Target sequence in this assay (P31645 whole entry, looked up): as the sequence (P31645 whole entry) above
Test [3] shares this target. Put plainly: Binding affinity to human SERT expressed in HEK293 cells at 1 uM after 1 hr by IRDye 800 CW azide based tandem photoaffinity labeling-biorthogonal conjugation assay. The format is cell-based.
Target sequence in this assay (P31645 whole entry, looked up): as the sequence (P31645 whole entry) above
Test [4] has the same target. Put plainly: Binding affinity to human SERT expressed in HEK293 cells at 1 uM preincubated for 1 hr followed by UV light irradiation for 20 mins by IRDye 800 CW azide based tandem photoaffinity labeling-biorthogonal conjugation assay. Type of test: cell-based.
Target sequence in this assay (P31645 whole entry, looked up): as the sequence (P31645 whole entry) above
For test [5] the target is unchanged. Kind of test: Binding affinity to human SERT expressed in HEK293 cells at 1 uM preincubated for 1 hr followed by UV light irradiation for 20 mins in presence of (S)-citalopram by IRDye 800 CW azide based tandem photoaffinity labeling-biorthogonal conjugation assay. The format is cell-based.
Target sequence in this assay (P31645 whole entry, looked up): as the sequence (P31645 whole entry) above

In general, Ki refers to a measure of affinity in units of concentration, obtained from inhibition or displacement. Low values mean a stronger hold on the target, high ones a looser hold on the target. Take `CN(C)CCC[C@@]1(c2ccc(F)cc2)OCc2cc(CNC(=O)c3cc(CN=[N+]=[N-])cc(N=[N+]=[N-])c3)ccc21`: in test [1], affinity was put at a Ki of 10.7 nM.

Take `C#CCOc1ccc(C(=O)c2ccc(CN(C)CCC[C@@]3(c4ccc(F)cc4)OCc4cc(C#N)ccc43)cc2)cc1`: affinity in test [1] was put at a Ki of 487 nM.

Turning to `C#CCOc1ccc(C(=O)c2ccc(C(=O)NCc3ccc4c(c3)CO[C@@]4(CCCN(C)C)c3ccc(F)cc3)cc2)cc1`, in test [1], the Ki stood at 0.16 nM. For the same compound, the Ratio Ki in test [2] was 11. Besides, the result in test [3] and in test [5] was inactive. For the same compound, the outcome in test [4] was Active.
